Reference: US8518903B2, “Use of toll-like receptor-9 agonists” (University of Pittsburgh—of the Commonwealth System of …, priority 2007, dated 2013)

Columns and labels:
[1] = tested on: enterocytes; test: LPS-mediated cytokine (IL-6) release from enterocytes; type: cell-based; settings: 50 μg/ml LPS + 10 μM CpG
Method: FIG. 8. CpG-DNA reduces LPS-mediated cytokine release from enterocytes. Bar graph showing the level of supernatant IL-6 in enterocytes which were either untreated (“CTRL”) or treated with 50 μg/ml LPS, 50 m/ml LPS+10 μM CpG, or 10 μM CpG.

[2] = tested on: experimental NEC in newborn mice; test: Murine model of necrotizing enterocolitis (formula gavage + hypoxia), CpG treatment; type: in vivo, mouse
Method: FIG. 18A-D. Histology of intestines from mice that were (A) breast fed (control); (B) gavage fed+hypoxic to model necrotizing enterocolitis (NEC); (C) breast fed and treated with 500 μg/kg (approximately 10 μg/animal, intraperitoneally injected) CpG (control); (D) gavage fed+hypoxic to model NEC and treated with 500 μg/kg (approximately 10 μg/animal, intraperitoneally injected) CpG.
(A) Control mice (injected with saline). (B) Mice injected with 5 mg/kg of LPS. (C) Mice injected with 5 mg/kg of LPS and 1 mg/kg of CpG. (D-G) Immunohistochemical staining of terminal ileum from newborn mice that were either breast fed (“control”) or induced to develop NEC (“NEC”). Sections were stained for caspase 3 as a marker of apoptosis and enterocyte loss; positive staining is indicated by a small arrowhead. (D) Control injected with saline. (E) NEC injected with saline. (F) Control injected with 1 mg/kg CpG-DNA daily for four days. (G) NEC injected with 1 mg/kg CpG-DNA daily for four days. (H) Bar graph summarizing results, showing percent apoptosis in terminal ileum as depicted in (D)-(G).
FIG. 20A-I. Newborn mice were either breast fed (“control”) or were induced to develop NEC (“NEC”). (A) Gross micrograph of intestine of a control mouse. (B) Gross micrograph of intestine of a control mouse treated with 1 mg/kg CpG-DNA daily for four days. (C) Gross micrograph of intestine of a NEC mouse. (D) Gross micrograph of intestine of a NEC mouse treated with 1 mg/kg CpG-DNA daily for four days. (E) Micrograph of histological section of intestine of a control mouse. (F) Micrograph of histological section of intestine of a control mouse treated with CpG. (G) Micrograph of histological section of intestine of a NEC mouse. (H) Micrograph of histological section of intestine of a NEC mouse treated with CpG. (I) Summary bar graph of the above results.
FIG. 16 presents a Western blot showing expression of TLR4 and TLR9 in control mice and mice modeling necrotizing enterocolitis (“NEC”). A substantial increase in the level of TLR4, and a decrease in TLR9, was observed. […]

[3] = tested on: enterocytes; test: Phosphorylated p38 and ERK in enterocytes exposed to LPS and CpG (Western blot); type: cell-based
Method: FIG. 6A-C. LPS signaling is attenuated by the TLR9 ligand CpG-DNA in enterocytes. (A) Comparison of phosphorylated p38 versus total p38 in a negative control, in the presence of 50 μg/ml LPS, in the presence of 50 μg/ml LPS and 10 μM CpG, and in the presence of 10 μM CpG. (B) Comparison of phosphorylated ERK versus total ERK in a negative control, in the presence of LPS, in the presence of LPS and CpG, and in the presence of CpG. (C) Bar graph showing the results of A.
A first series of experiments was designed to study the consequences of the TLR4 activator LPS and a CpG TLR9 agonist on the mediators of activated TLR4, p38 and ERK. Throughout this example section, the CpG used was CpG ODN, 5′-[…]-3′ (SEQ ID NO:6) P38 and ERK are both phosphorylated in their activated form. As shown in FIG. 6A-C, the relative levels of phosphorylated p38 and ERK increased when enterocytes were exposed to LPS.

[4] = tested on: IEC-6 cells; test: TLR4 and TLR9 expression and distribution in enterocytes (Western blot, immunofluorescence); type: cell-based
Text: FIG. 12. TLR4 and TLR9 expression are unchanged by CpG-DNA and LPS in enterocytes. Western blot showing levels of TLR4 and TLR9 (relative to actin) in enterocytes which were either untreated (Ctrl) or treated with LPS, LPS+CpG, or CpG.
FIG. 13A-E. CpG-DNA causes a redistribution of TLR4 into internal structures in IEC-6 cells. Immunofluorescence studies showing TLR4 distribution in IEC-6 cells which were either untreated (A) or treated with (B) LPS; (C) LPS+CpG; or (D) CpG. (E) is a schematic drawing showing redistribution of TLR4 caused by TLR9.
FIG. 14A-D. LPS causes the internalization of TLR9, which is reversed by CpG-DNA. Immunofluoresence studies of IEC-6 cells showing TLR9 distribution in cells which were either (A) untreated; or treated with (B) LPS; (C) LPS+CpG; or (D) CpG.
Further experiments were performed to study the mechanism by which TLR9 suppresses the TLR4 activation.

[5] = NEC mice, 1 mg/kg CpG-DNA daily for four days

In the case of 5′-TCCATGACGTTCCTGACGTT-3′ [CpG-DNA], the “LPS-mediated cytokine release (supernatant IL-6)” value [1] is reported as “reduces”, the “NEC pathology (gross and histological)” value [2, 5] is reported as “substantial inhibition of the NEC pathology” and the “apoptosis in terminal ileum (caspase 3)” value [2, 5] is reported as “substantially reduced apoptosis”. For the same substance, the “severity of experimental NEC” value ([2]; wild-type TLR4 mice, 500 μg/kg CpG intraperitoneally) was “limit the severity of experimental NEC”, the “relative level of phosphorylated p38 (increase caused by LPS)” value ([3]; 50 μg/ml LPS + 10 μM CpG vs LPS alone) was “significantly less” and the “relative level of phosphorylated ERK (increase caused by LPS)” value ([3]; LPS + CpG vs LPS alone) was “significantly less”. For the same substance, the “LPS-caused internalization of TLR9” value ([4]; IEC-6 cells, LPS + CpG) was “reversed”, the TLR4 distribution ([4]; IEC-6 cells, immunofluorescence) was “causes a redistribution of TLR4 into internal enterocyte structures” and the “TLR4 and TLR9 expression” value ([4]; enterocytes treated with CpG-DNA and LPS) was “unchanged”.
